US5086045A, “Antitumor antibiotic” (Bristol-Myers Squibb Company, priority 1990, dated 1992)
≈ marks a conversion by molar mass, not a printed value.

What was measured:
P388 leukemia = assay: In vivo antitumor activity, P388 leukemia implanted ip, drug ip; design: species or system mouse
Procedure: The in vivo antitumor activity of BMY-41339 was determined in the standard P388 mouse leukemia model. A summary of the experiments performed using BMY-41339 is provided below.
DBA/2 and (Balb/c × DBA/2)F1 (CDF1) hybrid mice were purchased from Charles River Breeding Co. (Wilmington, MA). They were provided food and water ad libitum.
The P388 murine ascites leukemia was maintained by weekly in vivo passage in DBA/2 mice.
Esperamicin A1 and BMY-41339 were dissolved in ethanol. Further dilutions were made with 0.9% NaCl (saline) until the ethanol concentration (v/v) was 10%. All administrations were made, therefore, in a 10% ethanol in saline vehicle. For ip injections, the concentration of compound was adjusted according to the average initial body weight of each group of mice to be injected such that the desired dose would be contained in a 0.5 ml injection volume. The same procedure was used for iv compound administration except the injection volume was 0.2 ml.
Antitumor experiments were initiated by implanting […] P388 leukemia cells either ip or iv into CDF1 mice. BMY-41339 and esperamicin A1 (included as a positive reference compound), were injected either ip in mice implanted ip with P388, or iv in mice implanted iv with P388 on Day 2 post-implant only Eight different dose levels of BMY-41339, at two-fold increments, were evaluated in each of the two experiments performed.
A % T/C value of ≥ 125 was considered indicative of activity in these models.

P. vulgaris A21559 = assay: Antibacterial activity (MIC), serial two-fold agar dilution; type: cell-based; settings: Proteus vulgaris
Procedure: (§1) Antimicrobial activity of BMY-41339 was determined for a variety of bacteria by the serial two-fold agar dilution method.

K. pneumoniae A9664 = assay: as above; type: cell-based; settings: Klebsiella pneumoniae
Procedure: as §1

B. subtilis A9506-A = assay: as above; type: cell-based; settings: Bacillus subtilis, A9506A
Procedure: as §1

E. coli A15119 = assay: as above; type: cell-based; settings: Escherichia coli
Procedure: as §1

S. aureus A20698 = assay: as above; type: cell-based; settings: Staphylococcus aureus
Procedure: as §1

E. coli A9751 = assay: as above; type: cell-based; settings: Escherichia coli
Procedure: as §1

E. faecalis A25708 = assay: as above; type: cell-based; settings: Enterococcus faecalis
Procedure: as §1

P. aeruginosa A9843 = assay: as above; type: cell-based; settings: Pseudomonas aeruginosa
Procedure: as §1

[1] = Exp. 8102, ip, 0.025 mg/kg/dose
[2] = Exp. 8109, ip, 0.025 mg/kg/dose

Structure (SMILES): C=C(OC)C(=O)Nc1cc(OC)c(OC)cc1C(=O)OC1CC(OC2C(=O)C(NC(=O)OC)=C3C(=CCSSSSC)C2(O)C#CC=CC#CC3OC2OC(C)C(NOC3CC(O)C(SC)C(C)O3)C(O)C2OC2CC(OC)C(NC(C)C)CO2)OC(C)C1O (stereo not drawn) [BMY-41339]
- T/C (P388 leukemia; Exp. 8102, ip, 1.6 μg/kg): 145%
- T/C (P388 leukemia; Exp. 8102, ip, 3.2 μg/kg (highest dose tested)): 140%
- % T/C (P388 leukemia; [1]): 110%
- Avg. wt. change on day 6 (P388 leukemia; [1]): 0.8 grams
- Survivors on Day 5 (P388 leukemia; [1]): 6/6
- % T/C (P388 leukemia; Exp. 8102, ip, 0.05 mg/kg/dose): 110%
- Avg. wt. change on day 6 (P388 leukemia; Exp. 8102, ip, 0.05 mg/kg/dose): 1.3 grams
- Survivors on Day 5 (P388 leukemia; Exp. 8102, ip, 0.05 mg/kg/dose): 6/6
- % T/C (P388 leukemia; Exp. 8102, ip, 0.1 mg/kg/dose): 120%
- Avg. wt. change on day 6 (P388 leukemia; Exp. 8102, ip, 0.1 mg/kg/dose): 0.7 grams
- Survivors on Day 5 (P388 leukemia; Exp. 8102, ip, 0.1 mg/kg/dose): 6/6
- % T/C (P388 leukemia; Exp. 8102, ip, 0.2 mg/kg/dose): 140%
- Avg. wt. change on day 6 (P388 leukemia; Exp. 8102, ip, 0.2 mg/kg/dose): 0.6 grams
- Survivors on Day 5 (P388 leukemia; Exp. 8102, ip, 0.2 mg/kg/dose): 6/6
- % T/C (P388 leukemia; Exp. 8102, ip, 0.4 mg/kg/dose): 135%
- Avg. wt. change on day 6 (P388 leukemia; Exp. 8102, ip, 0.4 mg/kg/dose): 0.6 grams
- Survivors on Day 5 (P388 leukemia; Exp. 8102, ip, 0.4 mg/kg/dose): 6/6
- % T/C (P388 leukemia; Exp. 8102, ip, 0.8 mg/kg/dose): 140%
- Avg. wt. change on day 6 (P388 leukemia; Exp. 8102, ip, 0.8 mg/kg/dose): 0.4 grams
- Survivors on Day 5 (P388 leukemia; Exp. 8102, ip, 0.8 mg/kg/dose): 6/6
- % T/C (P388 leukemia; Exp. 8102, ip, 1.6 mg/kg/dose): 145%
- Avg. wt. change on day 6 (P388 leukemia; Exp. 8102, ip, 1.6 mg/kg/dose): -0.1 grams
- Survivors on Day 5 (P388 leukemia; Exp. 8102, ip, 1.6 mg/kg/dose): 6/6
- % T/C (P388 leukemia; Exp. 8102, ip, 3.2 mg/kg/dose): 140%
- Avg. wt. change on day 6 (P388 leukemia; Exp. 8102, ip, 3.2 mg/kg/dose): 0.7 grams
- Survivors on Day 5 (P388 leukemia; Exp. 8102, ip, 3.2 mg/kg/dose): 6/6
- % T/C (P388 leukemia; Exp. 8102, ip, single injections above 0.1 μg/kg, Day 2 only): ≥ 135%
- overt drug-associated toxicity (e.g. excessive body weight loss, early deaths) (P388 leukemia; Exp. 8102, ip, up to 3.2 μg/kg): no obvious sign of overt drug-associated toxicity
- % T/C (P388 leukemia; [2]): 110%
- Avg. wt. change on day 6 (P388 leukemia; [2]): 0.8 grams
- Survivors on Day 5 (P388 leukemia; [2]): 6/6
- T/C (P388 leukemia; Exp. 8109, ip, 32 μg/kg (highest dose tested)): 171%
- % T/C (P388 leukemia; Exp. 8109, ip, 0.05 mg/kg/dose): 110%
- Avg. wt. change on day 6 (P388 leukemia; Exp. 8109, ip, 0.05 mg/kg/dose): 1.3 grams
- Survivors on Day 5 (P388 leukemia; Exp. 8109, ip, 0.05 mg/kg/dose): 6/6
- % T/C (P388 leukemia; Exp. 8109, ip, 0.1 mg/kg/dose): 120%
- Avg. wt. change on day 6 (P388 leukemia; Exp. 8109, ip, 0.1 mg/kg/dose): 0.7 grams
- Survivors on Day 5 (P388 leukemia; Exp. 8109, ip, 0.1 mg/kg/dose): 6/6
- % T/C (P388 leukemia; Exp. 8109, ip, 0.2 mg/kg/dose): 140%
- Avg. wt. change on day 6 (P388 leukemia; Exp. 8109, ip, 0.2 mg/kg/dose): 0.6 grams
- Survivors on Day 5 (P388 leukemia; Exp. 8109, ip, 0.2 mg/kg/dose): 6/6
- % T/C (P388 leukemia; Exp. 8109, ip, 0.4 mg/kg/dose): 135%
- Avg. wt. change on day 6 (P388 leukemia; Exp. 8109, ip, 0.4 mg/kg/dose): 0.6 grams
- Survivors on Day 5 (P388 leukemia; Exp. 8109, ip, 0.4 mg/kg/dose): 6/6
- % T/C (P388 leukemia; Exp. 8109, ip, 0.8 mg/kg/dose): 140%
- Avg. wt. change on day 6 (P388 leukemia; Exp. 8109, ip, 0.8 mg/kg/dose): 0.4 grams
- Survivors on Day 5 (P388 leukemia; Exp. 8109, ip, 0.8 mg/kg/dose): 6/6
- % T/C (P388 leukemia; Exp. 8109, ip, 1.6 mg/kg/dose): 145%
- Avg. wt. change on day 6 (P388 leukemia; Exp. 8109, ip, 1.6 mg/kg/dose): -0.1 grams
- Survivors on Day 5 (P388 leukemia; Exp. 8109, ip, 1.6 mg/kg/dose): 6/6
- % T/C (P388 leukemia; Exp. 8109, ip, 3.2 mg/kg/dose): 140%
- Avg. wt. change on day 6 (P388 leukemia; Exp. 8109, ip, 3.2 mg/kg/dose): 0.7 grams
- Survivors on Day 5 (P388 leukemia; Exp. 8109, ip, 3.2 mg/kg/dose): 6/6
- increases in lifespan (P388 leukemia; Exp. 8109, ip, 0.5 -32 μg/kg): active increases
- activity against P388 leukemia (P388 leukemia; conclusion, confirmed experimental results): active against P388 leukemia
- MIC (P. vulgaris A21559): 0.13 µg/mL (≈ 0.0958 µM)
- MIC (K. pneumoniae A9664): 1 µg/mL (≈ 0.737 µM)
- MIC (B. subtilis A9506-A): 0.001 µg/mL (≈ 0.000737 µM)
- MIC (E. coli A15119): 0.25 µg/mL (≈ 0.184 µM)
- MIC (S. aureus A20698): 0.001 µg/mL (≈ 0.000737 µM)
- MIC (E. coli A9751): 0.016 µg/mL (≈ 0.0118 µM)
- MIC (E. faecalis A25708): 0.002 µg/mL (≈ 0.00147 µM)
- MIC (P. aeruginosa A9843): 0.25 µg/mL (≈ 0.184 µM)
